According to patent US20230105212A1, “BIPHENYL DERIVATIVE INHIBITOR, PREPARATION METHOD THEREFOR AND USE THEREOF” (SHANGHAI HANSOH BIOMEDICAL CO., LTD., priority 2020, published 2023):

Tests used:
human PD-1/PD-L1 binding = target: T1, human PD-1/PD-L1 binding (Homo sapiens, UniProt Q9NZQ7); test: Inhibition of human PD-1/PD-L1 binding (TR-FRET/HTRF); details: TR-FRET, PD-L1-His and PD-1-Fc; read-out: PD-1/PD-L1 binding IC50
T1 construct: PD-L1-His protein (19 to 238 amino acids) (Abcam #ab167713); purchased Abcam (PD-L1-His); R&D (PD-1-Fc) ab167713; 1086-PD
How it was run: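 PD-L1-His (aa 19–238, diluted to 10 nM) and PD-1-Fc (aa 25–167, diluted to 20 nM) incubated with compounds (10 μM or 1 μM top, 3-fold, 11 doses) 60 min at room temperature, then anti-6HIS Eu cryptate/anti-human IgG-XL665 added for 3 h RT or overnight 4 °C. HTRF 665/620 nm ratio gave inhibition and IC50.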

[1] = target: T2, PD-L1 protein on the surface of MC38-hPDL1 tumor cells (Homo sapiens, UniProt Q9NZQ7); test: Induction of endocytosis of PD-L1 on the surface of tumor cells (flow cytometry); format: cell-based; details: 16 hours incubation; for Emax: MC38-hPDL1 cells, read-out: MC38 maximum endocytosis rate; for IC50: inducing endocytosis of PD-L1, MC38-hPDL1 cells, read-out: MC38 IC50
T2 construct: expressed in transfected cells; host or cells: MC38-hPDL1 (mouse colon cancer cells)
How it was run: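 IC50 comes from nonlinear fits of endocytosis rate, calculated from the loss of surface PE-anti-CD274 flow signal relative to vehicle. Cells were MC38 mouse colon cancer cells engineered to express high human PD-L1. Compound exposure lasted 16 h at 37 °C, 5% CO2.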

human PD-L1 protein = target: T3, human PD-L1 protein (Homo sapiens, UniProt Q9NZQ7); test: Thermal shift: melting temperature of PD-L1 protein; format: binding; details: compound 10 μM, PD-L1 protein 2 μM, Tm minus DMSO vehicle control; read-out: ΔTm (° C.)
T3 construct: purchased Acro Biosystems PD1-H5229
How it was run: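 Human PD-L1 at 2 μM final was tested in […], 150 mM NaCl with SYPRO Orange, heated 25→95 °C at 0.03 °C/s in a PCR melt-curve run. Tm was taken per treatment; ΔTm is the shift relative to DMSO vehicle.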

[2] = system: CHO-PDL1/Jurkat-PD1 cell pathway; test: Inhibition of CHO-PDL1/Jurkat-PD1 cell pathway (NFAT luciferase reporter); format: cell-based; details: for EC50: 6 hours incubation, luciferase signal; for maximal fold induction: relative to the signal value of the non-dosed group, read-out: Maximum induction fold
Description: Test Embodiment 3. Inhibitory Effect of the Compounds of the Present Disclosure on CHO-PDL1/Jurkat-PD1 Cell Pathway
Experimental purpose: The purpose of this test embodiment was to test the inhibitory effect of compounds on the CHO-PDL1/Jurkat-PD1 cell pathway.
Experimental method: Two stably transfected cell lines were included in this experiment, CHO-K1 cells stably transfected with PD-L1 and Jurkat cells stably transfected with PD-1 and NFAT luciferase reporter genes. Compounds were incubated with the two cell lines. Then, due to the inhibitory effect on the PD-1/PD-L1 pathway, the activation degree of Jurkat cells changed, so that the level of the reporter gene NFAT in the downstream of Jurkat cells changed, and the level of NFAT was characterized by detecting the signal value of luciferase, so that the inhibitory effect of the test compound on CHO-PDL1/Jurkat-PD1 pathway was characterized.
CHO-PDL1 cells (Promega, #J1252) were cultured to a suitable cell density. After digestion, the cells were resuspended by complete medium to become a suitable density of cell suspension. The cell suspension was plated 100 μL per well on a 96-well plate (Corning, #3610), and placed in a 37° C., 5% CO2 incubator and incubated overnight, and assay medium (RPMI 1640+2% FBS, RPMI 1640 Cat. No.: Gibco, #22400089, FBS Cat. No.: Gibco, #10091148) was used to prepare compound solutions of different concentrations. NFAT-luc2/PD1 Jurkat cells (Promega, #J1252) were collected and resuspended to the appropriate cell density using assay medium. The supernatant of the CHO-PDL1 cell culture plate was aspirated, and 40 μL of the prepared compound solution and 40 μL of resuspended NFAT-luc2/PD1 Jurkat cells were added, and incubated in a 5% CO2 incubator at 37° C. for 6 hours, and the cell plate was taken out, then 40 μL of One-Glo reagent (Promega, #E6120) was added to each well, shaked and mixed well, incubated in the dark at room temperature for 10 minutes, then put into a microplate reader and the luminescence program was used to read the luminescence value of the cell plate.
The EC50 value was fitted according to the compound concentration and the luminescence signal value, and the maximum induction fold of each compound relative to the signal value of the non-dosed group was calculated, as shown in Table 3.

MC38-hPDL1 cells = test: In vitro cytotoxicity on MC38-hPDL1 cells (CellTiter-Glo); format: cell-based, mouse; details: for MC38-hPDL1 inhibition rate (%): 72 hours; for IC50: Mus musculus, MC38-hPD-L1, 72 hours
Description: (§1) Test Embodiment 5. In Vitro Cytotoxicity of the Compounds of the Present Disclosure on NFAT-Luc2/PD1 Jurkat Cells and MC38-hPDL1 Cells
(§2) Experimental purpose: To test the in vitro cytotoxicity of compounds on NFAT-luc2/PD1 Jurkat cells and MC38-hPDL1 cells.
(§3) When the cells were cultured to an appropriate degree of confluency, the cells were collected, and the cells was adjusted in an appropriate cell concentration by complete medium, then the cell suspension was plated in a 96-well plate, 90 μL per well, and put in a 37° C., 5% CO2 incubator overnight; compound solutions of different concentrations were prepared by DMSO and medium, and a vehicle control was set; compound solutions were added to a 96-well plate, 10 μL per well, and put in a 37° C., 5% CO2 incubator and cultured for 72 hours. After that, CellTiter-Glo solution was added, the mixture was shaken and mixed evenly, incubated in the dark for 10 minutes, and a BioTek Synergy H1 microplate reader was used for reading.
(§4) Luminescence signal value was used to calculate the inhibition rate, and the concentration and inhibition rate were fitted by nonlinear regression curve using Graphpad Prism software to obtain IC50 values, as shown in the following table: […]

[3] = system: NFAT-luc2/PD1 Jurkat cells; test: In vitro cytotoxicity on NFAT-luc2/PD1 Jurkat cells (CellTiter-Glo); format: cell-based; details: 72 hours; for IC50: Homo sapiens, Jurkat
Description: as §1, §2, §3, §4

T1 sequence (Q9NZQ7 19-238): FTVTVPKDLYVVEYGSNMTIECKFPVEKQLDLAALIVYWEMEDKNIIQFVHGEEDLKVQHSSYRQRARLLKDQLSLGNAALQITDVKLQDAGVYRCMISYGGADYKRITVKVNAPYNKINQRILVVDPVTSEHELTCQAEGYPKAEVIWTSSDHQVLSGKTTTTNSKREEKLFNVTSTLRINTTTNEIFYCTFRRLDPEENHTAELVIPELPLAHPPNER
T3 sequence (Q9NZQ7 19-238 limits assumed): as the sequence (Q9NZQ7 19-238) above
T2 sequence (Q9NZQ7 19-290): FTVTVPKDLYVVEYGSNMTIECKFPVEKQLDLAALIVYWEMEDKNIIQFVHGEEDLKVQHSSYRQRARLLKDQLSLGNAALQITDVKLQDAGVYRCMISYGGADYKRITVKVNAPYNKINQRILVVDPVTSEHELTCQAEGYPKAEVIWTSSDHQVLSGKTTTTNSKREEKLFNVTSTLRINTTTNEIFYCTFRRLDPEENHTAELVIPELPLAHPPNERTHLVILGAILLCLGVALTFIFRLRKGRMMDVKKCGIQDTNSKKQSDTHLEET

Structure (SMILES)	IC50 (human PD-1/PD-L1 binding) [nM]	Emax [1] [%]	ΔTm at 10 µM (human PD-L1 protein) [°C]	IC50 [1] [nM]	EC50 [2] [nM]	maximal fold induction [2]	MC38-hPDL1 inhibition rate (%) (MC38-hPDL1 cells)	IC50 (MC38-hPDL1 cells) [nM]	Jurkat-PD1 inhibition rate (%) [3]	IC50 [3] [nM]
COc1cc(C(=O)Nc2cccc(-c3cccc(NC(=O)c4nc5c(n4C)CCN(C)C5)c3Cl)c2C)ncc1CNC1(C(=O)O)COC1 [Embodiment 102, 3-(((6-((2′-Chloro-3′-(1,5-dimethyl-4,5,6,7-tetrahydro-1H-imidazo[4,5-c]pyridine-2-carboxamido)-2-methyl-[1,1′-biphenyl]-3-yl)carbamoyl)-4-methoxypyridin-3-yl)methyl)amino)oxetane-3-carboxylic Acid]	1		10.8				−6.7%^	> 10000	−12.0% ^	> 10000
COc1nc(-c2cccc(-c3cccc(NC(=O)c4nc5c(n4C)CCN(C)C5)c3Cl)c2Cl)cnc1CN1CC(F)C1 [Embodiment 217, N-(2,2′-Dichloro-3′-(5-((3-fluoroazetidin-1-yl)methyl)-6-methoxypyrazin-2-yl)-[1,1′-biphenyl]-3-yl)-1,5-dimethyl-4,5,6,7-tetrahydro-1H-imidazo[4,5-c]pyridine-2-carboxamide]		96	13	1.4			67%	7150	79%	5370
CNC(=O)C1CN(Cc2ccc(-c3cccc(-c4cccc(NC(=O)c5nc6c(n5C)CCN(C)C6)c4Cl)c3Cl)nc2OC)C1 [Embodiment 184, N-(2,2′-Dichloro-3′-(6-methoxy-5-((3-(methylcarbamoyl)azetidin-1-yl)methyl)pyridin-2-yl)-[1,1′-biphenyl]-3-yl)-1,5-dimethyl-4,5,6,7-tetrahydro-1H-imidazo[4,5-c]pyridine-2-carboxamide]	7	96	16.7		62	2.8				
COc1nc(-c2cccc(-c3cccc(NC(=O)c4nc5c(n4C)CCN(C)C5)c3Cl)c2Cl)ccc1CN1CC(CNC(C)=O)C1 [Embodiment 181, N-(3′-(5-((3-(Acetylaminomethyl)azetidin-1-yl)methyl)-6-methoxypyridin-2-yl)-2,2′-dichloro-[1,1′-biphenyl]-3-yl)-1,5-dimethyl-4,5,6,7-tetrahydro-1H-imidazo[4,5-c]pyridine-2-carboxamide]	3.4	97	15		59					
COc1cc(C(=O)Nc2cccc(-c3cccc(NC(=O)c4nc5c(n4C)CCN(C)C5)c3Cl)c2C)ncc1CNCC(C)O (stereo in doubt) [Embodiment 38, (S)—N-(2-Chloro-3′-(5-(((2-hydroxypropyl)amino)methyl)-4-methoxypicolinamido)-2′-methyl-[1,1′-biphenyl]-3-yl)-1,5-dimethyl-4,5,6,7-tetrahydro-1H-imidazo[4,5-c]pyridine-2-carboxamide]	2.8	96		0.6	46	3.7				
COc1cc(-c2cccc(-c3cccc(NC(=O)c4nc5c(n4C)CCN(C)C5)c3Cl)c2C)ncc1CNC[C@@H]1CCC(=O)N1 [Embodiment 58, (S)—N-(2-Chloro-3′-(4-methoxy-5-((((5-carbonylpyrrolidin-2-yl)methyl)amino)methyl)pyridin-2-yl)-2′-methyl-[1,1′-biphenyl]-3-yl)-1,5-dimethyl-4,5,6,7-tetrahydro-1H-imidazo[4,5-c]pyridine-2-carboxamide]	1.5	94		5.1	99	3.5				

Second part, led by results:

IC50 (human PD-1/PD-L1 binding) [nM]	Emax [1] [%]	ΔTm at 10 µM (human PD-L1 protein) [°C]	IC50 [1] [nM]	Structure (SMILES)	EC50 [2] [nM]	maximal fold induction [2]	MC38-hPDL1 inhibition rate (%) (MC38-hPDL1 cells)	IC50 (MC38-hPDL1 cells) [nM]	Jurkat-PD1 inhibition rate (%) [3]	IC50 [3] [nM]
3.6	96	14.5		COc1nc(-c2cccc(-c3cccc(NC(=O)c4nc5c(n4C)CCN(C)C5)c3Cl)c2Cl)ccc1CN1CC2(CCN(C(C)=O)C2)C1 [Embodiment 195, N-(3′-(5-((6-Acetyl-2,6-diazaspiro[3.4]octan-2-yl)methyl)-6-methoxypyridin-2-yl)-2,2′-dichloro-[1,1′-biphenyl]-3-yl)-1,5-dimethyl-4,5,6,7-tetrahydro-1H-imidazo[4,5-c]pyridine-2-carboxamide]	89	3.6				
5.2	92			COc1nc(-c2cccc(-c3cccc(NC(=O)c4nc5c(n4C)CCN(C)C5)c3Cl)c2Cl)ncc1CN1CC2(C1)CN(C(C)=O)C2 [Embodiment 222, N-(3′-(5-((6-Acetyl-2,6-diazaspiro[3.3]heptan-2-yl)methyl)-4-methoxypyrimidin-2-yl)-2,2′-dichloro-[1,1′-biphenyl]-3-yl)-1,5-dimethyl-4,5,6,7-tetrahydro-1H-imidazo[4,5-c]pyridine-2-carboxamide]			0%	> 10000	36%	> 10000
4.3	93	16		COc1nc(-c2cccc(-c3cccc(NC(=O)c4nc5c(n4C)CCN(C)C5)c3Cl)c2Cl)ccc1CN1CCC2(CC1)CN(C(C)=O)C2 [Embodiment 197, N-(3′-(5-((2-Acetyl-2,7-diazaspiro[3.5]nonan-7-yl)methyl)-6-methoxypyridin-2-yl)-2,2′-dichloro-[1,1′-biphenyl]-3-yl)-1,5-dimethyl-4,5,6,7-tetrahydro-1H-imidazo[4,5-c]pyridine-2-carboxamide]	67	3.5				
6.4	96	12.3		COc1nc(-c2cccc(-c3cccc(NC(=O)c4nc5c(n4C)CCN(C)C5)c3Cl)c2Cl)ccc1CN1CC2(CN(C=O)C2)C1 [Embodiment 193, N-(2,2′-Dichloro-3′-(5-((6-formyl-2,6-diazaspiro[3.3]heptan-2-yl)methyl)-6-methoxypyridin-2-yl)-[1,1′-biphenyl]-3-yl)-1,5-dimethyl-4,5,6,7-tetrahydro-1H-imidazo[4,5-c]pyridine-2-carboxamide]	84	2.8				
